The source of these data is patent US20230183237A1, “COMPETITIVE AND NONCOMPETITIVE INHIBITORS OF THE MUSCARINIC ACETYLCHOLINE RECEPTOR M5” (Vanderbilt University, priority 2020, published 2023).

In the test the target is T1, hM5 (Homo sapiens, UniProt P08912).
T1 construct: expressed in transfected cells
T1 sequence (P08912 1-532): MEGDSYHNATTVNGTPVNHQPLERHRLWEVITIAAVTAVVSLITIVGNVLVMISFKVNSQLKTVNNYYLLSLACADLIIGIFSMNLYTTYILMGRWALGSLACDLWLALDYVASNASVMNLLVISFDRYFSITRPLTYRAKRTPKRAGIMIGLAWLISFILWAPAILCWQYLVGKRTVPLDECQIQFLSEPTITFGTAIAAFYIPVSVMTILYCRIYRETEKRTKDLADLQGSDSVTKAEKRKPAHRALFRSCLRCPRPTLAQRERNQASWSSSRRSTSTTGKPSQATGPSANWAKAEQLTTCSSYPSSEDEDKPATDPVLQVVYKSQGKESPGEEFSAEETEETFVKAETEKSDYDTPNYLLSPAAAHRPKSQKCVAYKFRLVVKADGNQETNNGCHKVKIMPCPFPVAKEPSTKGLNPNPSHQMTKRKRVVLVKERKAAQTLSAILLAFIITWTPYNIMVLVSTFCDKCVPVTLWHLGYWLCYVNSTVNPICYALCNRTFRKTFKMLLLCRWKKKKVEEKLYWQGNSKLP
The test can be described thus: Calcium mobilization concentration-response (IC50 vs EC80 acetylcholine), CHO hM5. In kind it is cell-based. Particulars: CELL LINE hM5; calcium mobilization, EC80 acetylcholine addition; read-out: IC50. The protocol:
Initial, single point (10 μM) compound characterization was performed in stable Chinese Hamster Ovary (CHO) cell lines constitutively expressing human M5 receptors. These were plated at 15,000 cells per 20 μL per well in Greiner 384-well black-walled, TC-treated, clear-bottomed plates (Fisher) in Ham's F12 medium supplemented with 10% FBS and 20 mM HEPES. Cells were incubated overnight at 37° C. under 5% CO2. The following day, medium was exchanged with assay buffer (Hank's Balanced Salt Solution supplemented with 20 mM HEPES and 2.5 mM Probenecid, pH 7.4) leaving 20 μL of assay buffer in each well. […] The cells were then incubated 50 minutes at 37° C. under 5% CO2. The assay buffer plus dye was then exchanged with fresh assay buffer leaving a volume of 20 μL in each well. Test compounds were diluted into assay buffer to a 2X (20 μM) concentration in 0.2% dimethylsulfoxide (DMSO) in columns 3-22 with matching DMSO concentration in columns 1, 2, 23, and […]; compounds were added to the assay for a final concentration of 10 μM and a final DMSO concentration of 0.1%.
Either an FDSS (Hamamatsu) or Panoptic (WaveFront Biosciences) kinetic imaging plate reader was used for assay execution and measurement of calcium flux. After establishing baseline fluorescence, test compounds (20 μL) were added to the cells using the reader's integrated pipettor and allowed to equilibrate for 140 seconds before addition of the […] concentration of acetylcholine (10 μL) along with vehicle in selected DMSO-only wells in the outer two columns . […] The raw fluorescence data from each well was normalized to the corresponding initial fluorescence reading (static ratio). The maximum fluorescence value following each addition was determined and the minimum value within that same timeframe was subtracted for each well then normalized to the average of the ECffiax maximum-minimum response, providing a % AChmax value for each addition for each well. The single point values represent mean values determined within the ECsu addition timeframe obtained from at least three independent determinations performed in triplicate or greater (error bars represent +/−SEM) unless otherwise specified.
CHO cells stably expressing hM1, hM2/Gqi5, hM3, hM4/Gqi5, hM5, rM1/Gqi5, rM3, rM4/Gqi5, or rM5 were plated in the manner described above. […] FDSS protocols were carried out as described above; the static ratio was calculated and the minimum response subtracted from the maximum response within the timeframe of each addition. This max-min response was then normalized to the maximum acetylcholine response. Calculation of IC50 was performed using the percent maximum acetylcholine response for the EC80 addition through the Vortex and Studies modules of the Dotmatics data management software. Results are stored in the Dotrnatics database and an audit trail of any changes to their analysis is generated. Data shown represent mean values obtained from at least three independent determinations performed in triplicate or greater (error bars represent±SEM) unless otherwise specified.
In general terms: Calcium flux is commonly read through the fluorescence of an indicator in the cells.

Turning to `Cc1c(C2CCN(S(=O)(=O)c3ccc4c(c3)CCO4)CC2)nn2ccnc2c1C` [Compound 45, 6-(1-((2,3-dihydrobenzofuran-5-yl)sulfonyl)piperidin-4-yl)-7,8-dimethylimidazo[1,2-b]pyridazine], the concentration for half-maximal inhibition (IC50) is > 10 µM.

With `Cc1cc2ncnn2cc1C1=CCN(S(=O)(=O)c2cc3c(cc2F)OCC3)CC1` [Compound 46, 6-(1-((6-fluoro-2,3-dihydrobenzofuran-5-yl)sulfonyl)-1,2,3,6-tetrahydropyridin-4-yl)-7-methyl-[1,2,4]triazolo[1,5-a]pyridine], the IC50 turned out to be 2.7 µM.

With `Cc1cc2ncnn2cc1C1CCN(S(=O)(=O)c2cc3c(cc2F)OCC3)CC1` [Compound 47, 6-(1-((6-fluoro-2,3-dihydrobenzofuran-5-yl)sulfonyl)piperidin-4-yl)-7-methyl-[1,2,4]triazolo[1,5-a]pyridine], the IC50 worked out at 0.441 µM.

Turning to `Cc1cc2ncnn2cc1C1=CCN(S(=O)(=O)c2ccc3c(c2)CC(C)O3)CC1` (centres unmarked) [Compound 49, 7-methyl-6-(1-((2-methyl-2,3-dihydrobenzofuran-5-yl)sulfonyl)-1,2,3,6-tetrahydropyridin-4-yl)-[1,2,4]triazolo[1,5-a]pyridine], the IC50 is > 10 µM.

For the compound `Cc1cc2nncn2cc1C1CCN(S(=O)(=O)c2ccc3c(c2)CCO3)CC1` [Compound 50, 6-(1-((2,3-dihydrobenzofuran-5-yl)sulfonyl)piperidin-4-yl)-7-methyl-[1,2,4]triazolo[4,3-a]pyridine], the IC50 was > 10 µM.

Take `Cc1cc2nncn2cc1C1CCN(S(=O)(=O)c2cc3c(cc2F)OCC3)CC1` [Compound 51, 6-(1-((6-fluoro-2,3-dihydrobenzofuran-5-yl)sulfonyl)piperidin-4-yl)-7-methyl-[1,2,4]triazolo[4,3-a]pyridine]: the IC50 is > 10 µM.

As to `Cc1cc2nccn2nc1C1CCN(S(=O)(=O)c2cc3c(cc2F)OCC3)CC1` [Compound 52, 6-(1-((6-fluoro-2,3-dihydrobenzofuran-5-yl)sulfonyl)piperidin-4-yl)-7-methylimidazo[1,2-b]pyridazine], the IC50 was determined as 5.5 µM.

Turning to `Cc1cc2nccn2nc1C1CCN(S(=O)(=O)c2cccnc2)CC1` [Compound 53, 7-methyl-6-(1-(pyridin-3-ylsulfonyl)piperidin-4-yl)imidazo[1,2-b]pyridazine], the IC50 is > 10 µM.

For `Cc1cc(S(=O)(=O)N2CCC(c3nn4ccnc4cc3C)CC2)cnc1Cl` [Compound 54, 6-(1-((6-chloro-5-methylpyridin-3-yl)sulfonyl)piperidin-4-yl)-7-methylimidazo[1,2-b]pyridazine], the half-inhibitory concentration (IC50) was > 10 µM.

For `Cc1cc2nccn2nc1C1CCN(S(=O)(=O)c2cn(C)nc2C)CC1` [Compound 55, 6-(1-((1,3-dimethyl-1H-pyrazol-4-yl)sulfonyl)piperidin-4-yl)-7-methylimidazo[1,2-b]pyridazine], the IC50 was 5.6 µM.

Turning to `Cc1cc2ncnn2cc1C1CCN(S(=O)(=O)c2cnc(Cl)c(C)c2)CC1` [Compound 57, 6-(1-((6-chloro-5-methylpyridin-3-yl)sulfonyl)piperidin-4-yl)-7-methyl-[1,2,4]triazolo[1,5-a]pyridine], the IC50 stood at 1.4 µM.

On to `O=S(=O)(c1ccc2c(c1)CCO2)N1CC[C@@H](c2cn(-c3ccc4scnc4c3)nn2)C1` [Compound 59, (R)-5-(4-(1-((2,3-Dihydrobenzofuran-5-yl)sulfonyl)pyrrolidin-3-yl)-1H-1,2,3-triazol-1-yl)benzo[d]thiazole], for which the IC50 was > 10 µM.

On to `O=S(=O)(c1ccc2c(c1)CCO2)N1CCC(c2ccc3ncnn3c2)CC1` [Compound 60, 6-(1-((2,3-dihydrobenzofuran-5-yl)sulfonyl)piperidin-4-yl)-[1,2,4]triazolo[1,5-a]pyridine], for which the IC50 is > 10 µM.

With `O=S(=O)(c1cc2c(cc1F)OCC2)N1CCC(c2ccc3ncnn3c2)CC1` [Compound 61, 6-(1-((6-fluoro-2,3-dihydrobenzofuran-5-yl)sulfonyl)piperidin-4-yl)-[1,2,4]triazolo[1,5-a]pyridine], the IC50 was > 10 µM.

Consider `O=S(=O)(c1ccc2ncsc2c1)N1CCC(c2ccc3ncnn3c2)CC1` [Compound 62, 6-((4-([1,2,4]triazolo[1,5-a]pyridin-6-yl)piperidin-1-yl)sulfonyl)benzo[d]thiazole], for which the IC50 is > 10 µM.

`Cc1nn(C)cc1S(=O)(=O)N1CCC(c2ccc3ncnn3c2)CC1` [Compound 63, 6-(1-((1,3-dimethyl-1H-pyrazol-4-yl)sulfonyl)piperidin-4-yl)-[1,2,4]triazolo[1,5-a]pyridine]: the IC50 was > 10 µM.

Take `Cc1cc2ncnn2cc1C1=CCN(S(=O)(=O)c2ccc3c(c2)C(C)(C)CO3)CC1` [Compound 64, 6-(1-((3,3-dimethyl-2,3-dihydrobenzofuran-5-yl)sulfonyl)-1,2,3,6-tetrahydropyridin-4-yl)-7-methyl-[1,2,4]triazolo[1,5-a]pyridine]: the IC50 is > 10 µM.

Turning to `Cc1cc2ncnn2cc1C1=CCN(S(=O)(=O)c2ccc3c(c2)C(C)CO3)CC1` (centres unmarked) [Compound 65, 7-Methyl-6-(1-((3-methyl-2,3-dihydrobenzofuran-5-yl)sulfonyl)-1,2,3,6-tetrahydropyridin-4-yl)[1,2,4]triazolo[1,5-a]pyridine], the IC50 turned out to be 0.384 µM.

For the compound `Cc1cc2nccn2cc1C1CCN(S(=O)(=O)c2ccc3c(c2)CCO3)CC1` [Compound 66, 6-(1-((2,3-dihydrobenzofuran-5-yl)sulfonyl)piperidin-4-yl)-7-methylimidazo[1,2-a]pyridine], the IC50 was found to be 1.3 µM.

As to `Cc1cc2nccn2cc1C1CCN(S(=O)(=O)c2cc3c(cc2F)OCC3)CC1` [Compound 67, 6-(1-((6-fluoro-2,3-dihydrobenzofuran-5-yl)sulfonyl)piperidin-4-yl)-7-methylimidazo[1,2-a]pyridine], the IC50 stood at 2.6 µM.

For the compound `Cc1cc2nccn2cc1C1CCN(S(=O)(=O)c2ccc3ncsc3c2)CC1` [Compound 68, 6-((4-(7-methylimidazo[1,2-a]pyridin-6-yl)piperidin-1-yl)sulfonyl)benzo[d]thiazole], the IC50 was 6 µM.

For the compound `Cc1ccc(S(=O)(=O)N2CCC(c3cn4ccnc4cc3C)CC2)cn1` [Compound 69, 7-methyl-6-(1-((6-methylpyridin-3-yl)sulfonyl)piperidin-4-yl)imidazo[1,2-a]pyridine], the IC50 is > 10 µM.

Turning to `Cc1cc2nccn2cc1C1CCN(S(=O)(=O)c2ccc(Cl)nc2)CC1` [Compound 70, 6-(1-((6-chloropyridin-3-yl)sulfonyl)piperidin-4-yl)-7-methylimidazo[1,2-a]pyridine], the IC50 is > 10 µM.

Take `Cc1cc2nccn2cc1C1CCN(S(=O)(=O)c2cn(C)nc2C)CC1` [Compound 71, 6-(1-((1,3-dimethyl-1H-pyrazol-4-yl)sulfonyl)piperidin-4-yl)-7-methylimidazo[1,2-a]pyridine]: the IC50 is > 10 µM.

Turning to `[2H]C1([2H])Oc2ccc(S(=O)(=O)N3CC=C(c4cn5ncnc5cc4C)CC3)cc2C1([2H])[2H]` [Compound 72, 6-(1-((2,3-dihydrobenzofuran-5-yl-2,2,3,3-d4)sulfonyl)-1,2,3,6-tetrahydropyridin-4-yl)-7-methyl-[1,2,4]triazolo[1,5-a]pyridine], the IC50 was 0.699 µM.

On to `Cc1cc2ncnn2cc1C1CCN(S(=O)(=O)c2ccc3c(c2)C(C)CO3)CC1` (centres unmarked) [Compound 73, 7-methyl-6-(1-((3-methyl-2,3-dihydrobenzofuran-5-yl)sulfonyl)piperidin-4-yl)-[1,2,4]triazolo[1,5-a]pyridine], for which the IC50 was found to be 0.069 µM.

In general, IC50 refers to the concentration at which inhibition is half-maximal.
